# Results taken from patent publication US20140186869A1, “METHOD FOR INHIBITING PROTEASE IN BIOLOGICAL SAMPLE CONTAINING PANCREATIC JUICE COMPONENTS” (OLYMPUS CORPORATION, priority 2011, published 2014).
# Where two headings read alike, the source gives them in different places.
# Columns and labels:
# [1] = tested on: protease present in pancreatic juice; experiment: Protease activity (fluorescent-labeled casein, same manner as Example 1) in pancreatic juice specimens; assay type: biochemical; settings: for concentration at which high levels of protease inhibitory effects against protease present in pancreatic juice are obtained: Example 7, pancreatin and two pancreatic juice specimens, various final concentrations, FIGS. 9-11
# [2] = tested on: protease present in pancreatic juice; experiment: as above; assay type: biochemical; settings: pancreatin and two pancreatic juice specimens, 1 mM PMSF, 4 mM AEBSF; for protease inhibitory effects against protease present in pancreatic juice: Example 4, 5 mM p-APMSF, 100 μl TLCK, 100 μM TPCK, FIG. 5; for protease inhibitory effect (fluorescence = degraded amount of casein): Example 3, 0.3 μM aprotinin, 50 μM leupeptin, FIG. 4
# Procedure: After adding each protease inhibitor cocktail so that the final concentration thereof was equal to manufacturer's recommended concentration (1×) or a concentration equal to 5 times the recommended concentration (5×), protease activity was measured using a simulated artificial pancreatic juice in the form of “pancreatin”, a digestive enzyme produced from porcine pancreas in which pancreatic enzymes are present in an activated state. Protease activity was measured using EnzCheck Protease Assay Kits (Molecular Probes). […] In addition, a sample solution in which fluorescent-labeled casein was added directly to pancreatin (inhibitor (−), DMSO (−)), a sample solution in which DMSO was added to pancreatin so that the added amount of DMSO was the same as in the case of adding each protease inhibitor cocktail at the manufacturer's recommended concentration (1×) (inhibitor (−), DMSO 1×), and a sample solution in which DMSO was added to pancreatin so that the added amount of DMSO was the same as in the case of adding each protease inhibitor cocktail at a concentration equal to five times the manufacturer's recommended concentration (5×) (inhibitor (−), DMSO 5×) were prepared for use as controls, and these sample solutions were measured for protease activity in the same manner as the protease inhibitor cocktails.
# There are four types of serine protease inhibitors contained in Protease Inhibitor Mix (GE) consisting of aprotinin, leupeptin, PMSF and AEBSF (concentrations are not disclosed). Therefore, protease activity was measured in the same manner as Example 1 using pancreatin and two types of pancreatic juice specimens for 15 combinations of the four types of inhibitors prepared so that the final concentration was equal to the maximum recommended concentration for each protease inhibitor alone. Furthermore, the maximum recommended concentrations consisted of 0.3 μM for aprotinin (Roche), 50 μM for leupeptin (Roche), 1 mM for PMSF (Roche) and 4 mM for AEBSF (Roche). In addition, protease activity was also measured in the same manner for a sample solution to which protease inhibitor was not added (Control Sample Solution 1), a sample solution containing the recommended concentration of Inhibitor Cocktail 1 (Complete, Roche) (Control Sample Solution 2), a sample solution containing Inhibitor Cocktail 1 at 5 times the recommended concentration (5×) (Control Sample Solution 3), a sample solution containing the recommended concentration of Inhibitor Cocktail 4 (Protease Inhibitor Mix, GE) (Control Sample Solution 4), and a sample solution containing Inhibitor Cocktail 4 at five times the recommended concentration (5×) (Control Sample Solution 5).
# More specifically, a sample solution obtained by adding 1 mM PMSF and 4 mM AEBSF, a sample solution obtained by adding 1 mM PMSF, a sample solution obtained by adding 4 mM AEBSF, a sample solution obtained by adding 5 mM p-APMSF, a sample solution obtained by adding […] TLCK and a sample solution obtained by adding 100 μM TPCK were prepared for use as protease inhibitors, and the protease activity of each sample solution was measured in the same manner as Example 1 using pancreatin and two types of pancreatic juice specimens. In addition, the protease activities of a sample solution to which protease inhibitor was not added (inhibitor (−)), a sample solution containing Inhibitor Cocktail 1 at the recommended concentration (Complete, Roche), a sample solution containing Inhibitor Cocktail 1 at 5 times the recommended concentration (5×), a sample solution containing Inhibitor Cocktail 4 at the recommended concentration (Protease Inhibitor Mix, GE), and a sample solution containing Inhibitor Cocktail 4 at five times the recommended concentration (5×) were also measured in the same manner.
# [3] = tested on: protease in duodenal juice specimens; experiment: Protease activity (fluorescent-labeled casein) in duodenal juice specimens; assay type: biochemical; settings: Example 9; four duodenal juice specimens; 1 mM PMSF + 4 mM AEBSF plus 0.3 mM Aprotinin or 1 mM TLCK; FIG. 14
# Procedure: After adding each protease inhibitor cocktail so that the final concentration thereof was equal to manufacturer's recommended concentration (1×) or a concentration equal to 5 times the recommended concentration (5×), protease activity was measured using a simulated artificial pancreatic juice in the form of “pancreatin”, a digestive enzyme produced from porcine pancreas in which pancreatic enzymes are present in an activated state. Protease activity was measured using EnzCheck Protease Assay Kits (Molecular Probes). More specifically, fluorescent-labeled casein provided with the kits was added to a pancreatin solution to which each protease inhibitor cocktail had been added, and after incubating for 2 hours at 37° C., fluorescence was measured at a fluorescence wavelength of Ex/Em=485/535 nm. […]
# More specifically, a sample solution obtained by adding 1 mM PMSF and 4 mM AEBSF, a sample solution obtained by adding 1 mM PMSF, 4 mM AEBSF and 0.3 mM Aprotinin, and a sample solution obtained by adding 1 mM PMSF, 4 mM AEBSF and 1 mM TLCK were prepared as protease inhibitors, and the protease activity of each sample solution was measured in the same manner as Example 1 using four types of duodenal juice specimens. The protease activity of a sample solution to which protease inhibitor was not added (Inhibitor (−)) was also measured in the same manner as a control.
# [4] = tested on: pancreatin (simulated artificial pancreatic juice; pancreatic enzymes in an activated state); experiment: Protease activity, EnzCheck Protease Assay Kits (fluorescent-labeled casein), in pancreatin solution; assay type: biochemical, porcine; settings: Example 5; 0.0003 mM to 0.3 mM Aprotinin; FIGS. 6 and 7
# Procedure: […] 5 times the recommended concentration (5×), protease activity was measured using a simulated artificial pancreatic juice in the form of “pancreatin”, a digestive enzyme produced from porcine pancreas in which pancreatic enzymes are present in an activated state. Protease activity was measured using EnzCheck Protease Assay Kits (Molecular Probes). More specifically, fluorescent-labeled casein provided with the kits was added to a pancreatin solution to which each protease inhibitor cocktail had been added, and after incubating for 2 hours at 37° C., fluorescence was measured at a fluorescence wavelength of Ex/Em=485/535 nm. […]
# Fluorescence plotted on the vertical axis represents the degraded amount of casein, and that value was estimated to be the value of protease activity.
# [5] = Example 5, pancreatic juice specimens, 10-50 μm Elastase Inhibitor I, 1-10 mM EDTA, 0.0003-0.3 mM Aprotinin, 0.005-5 mM Leupeptin, 0.01-1 mM TLCK or TPCK, FIGS. 6 and 7
Compound,concentration at which high levels of protease inhibitory effects against protease present in pancreatic juice are obtained [1] [mM],protease inhibitory effects against protease present in pancreatic juice [2],"inhibitory effects against protease present in pancreatic juice [1, 5]",other results
"NCCc1ccc(S(=O)(=O)F)cc1 [AEBSF, 4-(2-aminoethyl)-benzenesulfonyl fluoride]",≥ 4,high levels of protease inhibitory effects,,
O=C(O)CN(CCN(CC(=O)O)CC(=O)O)CC(=O)O [EDTA],,,,inhibitory effects against protease present in pancreatic juice [1]: hardly any inhibitory effects
CC(=O)N[C@@H](CC(C)C)C(=O)N[C@@H](CC(C)C)C(=O)N[C@H](C=O)CCCNC(=N)N [Leupeptin],,,hardly any inhibitory effects,protease inhibitory effect (fluorescence = degraded amount of casein) [2]: hardly any effect on protease activity
"O=S(=O)(F)Cc1ccccc1 [PMSF, phenylmethylsulfonyl fluoride]",≥ 1,high levels of protease inhibitory effects,,
"Cc1ccc(S(=O)(=O)N[C@@H](CCCCN)C(=O)CCl)cc1 [TLCK, N-a-tosyl-L-lysine chloromethyl ketone]",,low levels of protease inhibitory effects,hardly any inhibitory effects,"additional inhibitory effects when added to PMSF and AEBSF, compared with PMSF and AEBSF only [3]: additional inhibitory effects were observed"
"Cc1ccc(S(=O)(=O)N[C@@H](Cc2ccccc2)C(=O)CCl)cc1 [TPCK, N-a-tosyl-L-phenylalanine chloromethyl ketone]",,low levels of protease inhibitory effects,slight protease inhibitory effects,
Aprotinin,,,hardly any effects,"protease inhibitory effects against pancreatin (simulated pancreatic juice) [4]: weak protease inhibitory effects; protease inhibitory effect (fluorescence = degraded amount of casein) [2]: hardly any effect on protease activity; additional inhibitory effects when added to PMSF and AEBSF, compared with PMSF and AEBSF only [3]: additional inhibitory effects were not observed"
p-amidinophenylmethane sulfonyl fluoride hydrochloride [p-APMSF],≥ 2,high levels of protease inhibitory effects,,
